Measurements: US11642548B2, “Sterilization method and sterilization apparatus” (Ushio Denki Kabushiki Kaisha, priority 2017, dated 2023)

Key:
[1] = Test Example 3: odor of amino acid aqueous solutions before and after irradiation of ultraviolet at a peak wavelength of 222 nm (sensory evaluation); format: physicochemical; settings: for Comparison with smells in Test example 1: odor after 222 nm UV irradiation of the solution compared with odor of UV-irradiated human hand, sensory evaluation by six assessors; for Odor before irradiation: 3 mL aqueous solution of amino acid in petri dish, before ultraviolet irradiation
Procedure: Looking at amino acids that form the proteins in the epidermis, then changes in the odor before and after irradiation of ultraviolet at a peak wavelength of 222 nm with respect to the following eighteen types of amino acids are examined More specifically, a 3 mL aqueous solution of each type of amino acid was put in a φ40 petri dish, and using the same light source as that of the ultraviolet irradiation apparatus 1, irradiated with ultraviolet with an irradiance of 3.8 mW/cm^2 for an irradiation period of 30 seconds. The petri dish and the light source were spaced apart by 8 cm. The eighteen types of amino acids were: Cystine, glutamic acid, leucine, arginine, serine, threonine, aspartic acid, proline, glycine, valine, alanine, phenylalanine, isoleucine, tyrosine, lysine, histidine, methionine, and tryptophan. These eighteen amino acids are all known as the substances that form proteins contained in the epidermis.
The comparison with the odor in Test Example 1 was made by sensory evaluation performed by the six assessors M1, M2, M3, M4, M5, and M6.

[2] = test system: region irradiated with ultraviolet (palm of the right hand); assay: Test Example 4: application of amino acid aqueous solution to palm irradiated with 222 nm ultraviolet, assessment of change in smell; format: in vivo, human; settings: 1 mM aqueous solution sprayed and rubbed in on palm irradiated with 222 nm UV, 3.8 mW/cm^2, 30 seconds, smell of burning hair before application, Assessor M1, other five gave the same results
Description: Similarly to the method of Test Example 1, using the ultraviolet irradiation apparatus 1 shown in FIG. 1, the palm of the right hand of each of six assessors M1, M2, M3, M4, M5, and M6 was irradiated with ultraviolet, with a peak wavelength at 222 nm and an irradiance of 3.8 mW/cm^2 for an irradiation period of 30 seconds.
After that, each aqueous solution of the eighteen types of amino acids used in Test Example 3 (cystine, glutamic acid, leucine, arginine, serine, threonine, aspartic acid, proline, glycine, valine, alanine, phenylalanine, isoleucine, tyrosine, lysine, histidine, methionine, and tryptophan) was applied to the region irradiated with ultraviolet (molar concentration: 1 mM). More specifically, each aqueous solution was sprayed and rubbed in with the palm of the hand. This was followed by an assessment of any changes in the smell before and after application of each aqueous solution.

SMILES	Comparison with smells in Test example 1 [1]	Odor before irradiation [1]	Smell after application of amino acid solution [2]	also measured
C[C@H](N)C(=O)O [Alanine, alanine]	Different	–	–	–
N=C(N)NCCC[C@H](N)C(=O)O [Arginine, arginine]	Different	–	Smell disappeared	Smell after application of amino acid solution ([2]; listed as arginine): no odor was detected
N[C@@H](CSSC[C@H](N)C(=O)O)C(=O)O [Cystine]	Different	No smell	–	–
NCC(=O)O [Glycine, glycine]	Different	No smell	Smell disappeared	Smell after application of amino acid solution ([2]; listed as glycine): no odor was detected
CC[C@H](C)[C@H](N)C(=O)O [Isoleucine, isoleucine]	substantially the same	–	Smell disappeared	Smell after application of amino acid solution ([2]; listed as isoleucine): no odor was detected
NCCCC[C@H](N)C(=O)O [Lysine, lysine]	Different	–	–	–
CSCC[C@H](N)C(=O)O [Methionine, methionine]	substantially the same	–	Smell disappeared	Smell after application of amino acid solution ([2]; listed as methionine): no odor was detected
O=C(O)[C@@H]1CCCN1 [Proline, proline]	Different	No smell	Smell disappeared	Odor after irradiation ([1]; 3 mL aqueous solution in petri dish, UV peak 222 nm, 3.8 mW/cm^2, 30 seconds, 8 cm from light source): Smell like lysine; Smell after application of amino acid solution ([2]; listed as proline): no odor was detected
C[C@@H](O)[C@H](N)C(=O)O [Threonine, threonine]	Different	No smell	–	–
CC(C)[C@H](N)C(=O)O [Valine, valine]	substantially the same	–	Smell disappeared	Smell after application of amino acid solution ([2]; listed as valine): no odor was detected

More lines, main results first:

Comparison with smells in Test example 1 [1]	Odor before irradiation [1]	SMILES	Smell after application of amino acid solution [2]	also measured
Different	No smell	N[C@@H](CC(=O)O)C(=O)O [Aspartic acid, aspartic acid]	Smell disappeared	Smell after application of amino acid solution ([2]; listed as aspartic acid): no odor was detected
Different	Slight smell	N[C@@H](CCC(=O)O)C(=O)O [Glutamic acid, glutamic acid]	Smell disappeared	Smell after application of amino acid solution ([2]; listed as glutamic acid): no odor was detected
Different	No smell	N[C@@H](Cc1c[nH]cn1)C(=O)O [Histidine, histidine]	–	–
substantially the same	–	CC(C)C[C@H](N)C(=O)O [Leucine, leucine]	Smell disappeared	Smell after application of amino acid solution ([2]; listed as leucine): no odor was detected
Different	–	N[C@@H](Cc1ccccc1)C(=O)O [Phenylalanine, phenylalanine]	–	–
Different	No smell	N[C@@H](CO)C(=O)O [Serine, serine]	Smell disappeared	Smell after application of amino acid solution ([2]; listed as serine): no odor was detected
Different	No smell	N[C@@H](Cc1ccc(O)cc1)C(=O)O [Tyrosine, tyrosine]	–	–
